Test results: paper PMC3210610, “Studies on Synthesis and Structure-Activity Relationship (SAR) of Derivatives of a New Natural Product from Marine Fungi as Inhibitors of Influenza Virus Neuraminidase” (Marine Drugs, 2011)

Key:
[1] = target: neuraminidase (NA) of A/GuangdongSB/01/2009 (H1N1) (Influenza A virus (A/Managua/5248.03/2009(H1N1)), UniProt E0V7D1); conditions: 0.15 mM 4-MUNANA, MES pH 6.5, 4 mM CaCl2, 37 °C, 1 h preincubation; Figure 2 legend says chemiluminescence assay
[2] = target: neuraminidase (NA) of A/Guangdong/05/2009 (H1N1) (Influenza A virus (A/Managua/5248.03/2009(H1N1)), UniProt E0V7D1); conditions: 0.15 mM 4-MUNANA, MES pH 6.5, 4 mM CaCl2, 37 °C, 1 h preincubation; Figure 2 legend says chemiluminescence assay

## C=CCOc1cc(C=O)ccc1O [compound 15, 3-(allyloxy)-4-hydroxybenzaldehyde]
[1]
  IC50: 27 µM
[2]
  IC50: 25.1 µM
